# pEC50, pKi: −log10 of the molar value.
# What was measured:
# [1] = molecular target: T1, Peroxisome proliferator-activated receptor gamma (Homo sapiens, UniProt P37231); experiment: Binding affinity to PPARgamma (unknown origin)
# T1 sequence (P37231 whole entry): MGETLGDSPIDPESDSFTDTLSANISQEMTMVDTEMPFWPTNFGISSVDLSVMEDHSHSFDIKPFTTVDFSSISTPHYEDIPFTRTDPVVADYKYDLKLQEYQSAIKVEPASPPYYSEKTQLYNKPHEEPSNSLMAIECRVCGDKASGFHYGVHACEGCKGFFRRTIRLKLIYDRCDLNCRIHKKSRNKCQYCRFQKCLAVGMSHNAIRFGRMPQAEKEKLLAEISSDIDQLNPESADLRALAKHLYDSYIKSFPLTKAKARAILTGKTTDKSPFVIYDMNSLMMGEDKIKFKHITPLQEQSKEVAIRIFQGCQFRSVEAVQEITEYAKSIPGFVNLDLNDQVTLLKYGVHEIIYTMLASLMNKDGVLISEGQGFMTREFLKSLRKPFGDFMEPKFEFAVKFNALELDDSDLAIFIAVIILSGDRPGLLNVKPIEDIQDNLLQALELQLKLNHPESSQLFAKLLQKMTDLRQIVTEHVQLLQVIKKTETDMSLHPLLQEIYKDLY
# [2] = Half life in Syrian hamster at 100 mg/kg, po; assay type: ADME, organism-based, Mesocricetus auratus; details: in vivo
# [3] = Cmax in Syrian hamster at 100 mg/kg, po; assay type: ADME, organism-based, Mesocricetus auratus; parameters: dose 100 mg/kg, route po; details: in vivo
# [4] = molecular target: T2, Peroxisome proliferator-activated receptor gamma (Homo sapiens) (UniProt P37231); experiment: Agonist activity at PPARgamma (unknown origin) at 0.1 to 25 uM relative to control; details: dose 0.1-25 µM
# T2 sequence (whole entry): T1 sequence (P37231 whole entry)
# [5] = molecular target: T3, Peroxisome proliferator-activated receptor alpha (Homo sapiens) (UniProt Q07869); experiment: Agonist activity at PPARalpha (unknown origin) at 240 uM relative to control
# T3 sequence (whole entry): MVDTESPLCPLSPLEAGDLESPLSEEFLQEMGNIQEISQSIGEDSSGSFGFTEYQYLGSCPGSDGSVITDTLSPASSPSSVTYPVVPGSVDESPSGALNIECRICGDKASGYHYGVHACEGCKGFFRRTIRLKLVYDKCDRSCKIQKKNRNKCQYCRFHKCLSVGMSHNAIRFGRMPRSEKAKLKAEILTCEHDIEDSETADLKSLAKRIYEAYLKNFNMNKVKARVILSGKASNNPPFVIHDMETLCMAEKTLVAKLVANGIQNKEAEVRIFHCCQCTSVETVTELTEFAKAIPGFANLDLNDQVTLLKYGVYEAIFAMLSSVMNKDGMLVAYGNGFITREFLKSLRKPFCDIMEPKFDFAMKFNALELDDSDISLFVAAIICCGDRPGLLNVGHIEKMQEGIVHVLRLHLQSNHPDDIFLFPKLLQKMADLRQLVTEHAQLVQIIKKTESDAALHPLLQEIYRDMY
# [6] = molecular target: T2, Peroxisome proliferator-activated receptor gamma (Homo sapiens); experiment: Agonist activity at PPARgamma (unknown origin) at 80 uM relative to control; details: filed as agonist
# [7] = molecular target: T2, Peroxisome proliferator-activated receptor gamma (Homo sapiens); experiment: Partial agonist activity at PPARgamma (unknown origin) relative to control
# [8] = Cmax in mouse at 100 mg/kg, PO; assay type: ADME, organism-based; parameters: dose 100 mg/kg, route po; details: in vivo
# [9] = Half life in mouse at 100 mg/kg, po; assay type: ADME, organism-based; details: in vivo
# [10] = molecular target: T4, Peroxisome proliferator-activated receptor delta (Homo sapiens, UniProt Q03181); experiment: Agonist activity at PPARdelta (unknown origin)
# T4 sequence (Q03181 whole entry): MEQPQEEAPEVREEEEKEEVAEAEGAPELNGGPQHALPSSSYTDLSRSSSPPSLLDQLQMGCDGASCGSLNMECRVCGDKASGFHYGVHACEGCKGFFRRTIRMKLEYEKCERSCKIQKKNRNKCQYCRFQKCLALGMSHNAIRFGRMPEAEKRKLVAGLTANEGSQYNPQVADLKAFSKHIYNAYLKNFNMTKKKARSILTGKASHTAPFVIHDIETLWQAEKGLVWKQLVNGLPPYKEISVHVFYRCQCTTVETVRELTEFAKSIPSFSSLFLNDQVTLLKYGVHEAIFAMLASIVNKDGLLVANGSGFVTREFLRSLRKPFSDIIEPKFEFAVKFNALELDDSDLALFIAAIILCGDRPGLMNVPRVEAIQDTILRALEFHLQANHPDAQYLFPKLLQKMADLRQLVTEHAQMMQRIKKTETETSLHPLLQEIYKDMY
# [11] = molecular target: T3, Peroxisome proliferator-activated receptor alpha (Homo sapiens); experiment: Agonist activity at PPARalpha (unknown origin) relative to control; details: filed as agonist
# [12] = molecular target: T5, Peroxisome proliferator-activated receptor alpha (Homo sapiens, UniProt Q07869); experiment: Binding affinity to PPARalpha (unknown origin)
# T5 sequence (Q07869 whole entry): T3 sequence (whole entry)
# [13] = molecular target: T5, Peroxisome proliferator-activated receptor alpha; experiment: Agonist activity at PPARalpha (unknown origin)
# [14] = molecular target: T6, Peroxisome proliferator-activated receptor delta (Homo sapiens) (UniProt Q03181); experiment: Agonist activity at PPARdelta (unknown origin) at 20 uM relative to control; details: filed as agonist
# T6 sequence (whole entry): T4 sequence (Q03181 whole entry)
# [15] = molecular target: T3, Peroxisome proliferator-activated receptor alpha (Homo sapiens); experiment: Agonist activity at PPARalpha (unknown origin) at 20 uM relative to control; details: filed as agonist
compound,measurement,setting,value
CC(C)=CCC[C@@](C)(O)[C@H]1CC[C@]2(C)[C@@H]1[C@H](O)C[C@@H]1[C@@]3(C)CC[C@H](O)C(C)(C)[C@@H]3[C@@H](O)C[C@]12C,pKi,[1],4.27
COc1cc(/C=C/c2cc(/C=C/c3ccc(O)c(OC)c3)n(-c3ccc(Cl)c(Cl)c3)n2)ccc1O,half-life,[2],2.8 h
same,Cmax,[3],1390 ng/mL
CCCCCc1cc2c(c(O)c1C(=O)O)[C@@H]1C=C(C)CC[C@H]1C(C)(C)O2,Activity,[4],17%
O=C1C[C@@H](c2ccc(O)cc2)Oc2cc(O)cc(O)c21,Activity,[5],24%
same,Activity,[6],57%
O=c1c(O)c(-c2ccc(O)c(O)c2)oc2cc(O)cc(O)c12,Activity,[7],20%
COc1cc(CCc2ccccc2)c(C(=O)O)c(O)c1CC=C(C)C [AMORFRUTIN A],Cmax,[8],42400 ng/mL
same,half-life,[9],2 h
COc1ccc2cc3[n+](cc2c1OC)CCc1cc2c(cc1-3)OCO2 [BERBERINE],pEC50,[10],4.85
same,Activity,[11],102%
same,pKi,[12],6.14
same,pEC50,[13],6.24
C=C1CC/C=C(\C)CC[C@@H]2[C@@H]1CC2(C)C [BETA-CARYOPHYLLENE],pEC50,[13],5.02
COc1cc(/C=C/C(=O)CC(=O)/C=C/c2ccc(O)c(OC)c2)ccc1O [CURCUMIN],Cmax,[3],2.35 ng/mL
O=c1c(O)c(-c2ccc(O)cc2)oc2cc(O)cc(O)c12 [KAEMPFEROL],pEC50,[10],3.47
same,Activity,[14],155%
same,Activity,[7]; filed as partial agonist,45%
same,Activity,[15],433%
same,pEC50,[13],4.81
C=CCc1ccc(O)c(-c2cc(CC=C)ccc2O)c1 [MAGNOLOL],pEC50,[10],4.94
Cc1coc2c1C(=O)C(=O)c1c-2ccc2c1CCCC2(C)C [TANSHINONE IIA],pKi,[1],5.59

# Source: ChEMBL document CHEMBL5241076, “Natural products and analogs as preventive agents for metabolic syndrome via peroxisome proliferator-activated receptors: An overview” (Eur J Med Chem, 2021)
